Measured values reported in US6436945B2, “Substituted O6-benzyl-8-aza-guanines” (The United States of America as represented by the of …, priority 1994, dated 2002).

Columns and labels:
[1] = tested on: MCF-71 breast cancer cells; experiment: Killing of MCF-71 breast cancer cells by BCNU combined with AGT inactivators (colony formation)
Method: (§1) Cells were treated for 2 h with AGT inactivator prior to exposure to BCNU.

[2] = tested on: HT-29 colon cancer cells; experiment: Killing of HT-29 colon cancer cells by BCNU combined with AGT inactivators (colony formation); conditions: for Colony Formation per 1000 cells: HT-29
Method: as §1

[3] = tested on: DU-145 prostate cancer cells; experiment: Killing of DU-145 prostate cancer cells by BCNU combined with AGT inactivators (colony formation)
Method: as §1

[4] = molecular target: T1, O^6-alkylguanine-DNA alkyltransferase (AGT) (Homo sapiens, UniProt P16455); experiment: AGT inactivation in HT29 cell-free extract; conditions: for AGT inactivating activity in HT29 cell-free extracts, in words: comparison
T1 sequence (P16455 1-207): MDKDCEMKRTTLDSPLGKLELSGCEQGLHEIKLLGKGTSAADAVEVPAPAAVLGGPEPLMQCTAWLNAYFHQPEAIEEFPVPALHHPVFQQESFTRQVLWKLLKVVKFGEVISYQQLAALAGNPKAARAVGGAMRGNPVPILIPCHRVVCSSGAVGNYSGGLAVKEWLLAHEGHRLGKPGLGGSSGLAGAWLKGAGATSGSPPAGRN
Method: (§2) The data represent the dose of compound required to produce 50% inactivation in cell-free extracts upon incubation for 30 min or in cells upon incubation for 4 hr.

[5] = molecular target: T1, O^6-alkylguanine-DNA alkyltransferase (AGT); experiment: AGT inactivation in intact HT29 cells; conditions: for AGT inactivating activity in intact HT29 cells, in words: comparison; for ratio of ED50 values in cell-free extracts/intact cells: HT29
Method: as §2

[6] = BCNU 40 μM, statement covers HT29, DU-145 and MCF-71 cells (Tables 3-5)

Compound: O=NN(CCCl)C(=O)NCCCl [BCNU, 1,3-bis(2-chloroethyl)-1-nitrosourea, reference compound]
- Colony Formation per 1000 cells ([1]; no inactivator, BCNU 40 μM): 364 ± 60 per 1000 cells
- Colony Formation per 1000 cells ([2]; no inactivator, BCNU 40 μM): 442 ± 34 per 1000 cells
- effect of agent alone on cell colony number, in words ([2]; statement covers HT29, DU-145 and MCF-71 cells (Tables 3-5)): no significant effect on cell colony number
- Colony Formation per 1000 cells ([3]; no inactivator, BCNU 40 μM): 394 ± 76 per 1000 cells

Compound: Cc1nc(N)nc(OCc2ccccc2)c1[N+](=O)[O-] [Compound 5b, 2-Amino-4-benzyloxy-6-methyl-5-nitropyrimidine]
- EC50 [4]: 400 nM
- EC50 [5]: 60 nM
- AGT inactivating activity in intact HT29 cells, in words [5]: quite active in cells

Compound: Nc1nc(N)c(N)c(OCc2ccccc2)n1 [Compound 3c, 2,4,5-triamino-6-benzyloxypyrimidine]
- Colony Formation per 1000 cells ([1]; inactivator 10 μM, BCNU 40 μM): 12 ± 4 per 1000 cells
- Colony Formation per 1000 cells ([1]; inactivator 10 μM, BCNU none): 448 ± 55 per 1000 cells
- EC50 [4]: 400 nM
- enhancement of BCNU cytotoxicity, in words [2, 6]: as effective as the 8-substituted O^6-bezylguanine derivatives and O^6-benzylguanine itself
- Colony Formation per 1000 cells ([2]; inactivator 1 μM, BCNU 40 μM): 487 ± 32 per 1000 cells
- Colony Formation per 1000 cells ([2]; inactivator 10 μM, BCNU 40 μM): 3 ± 1 per 1000 cells
- Colony Formation per 1000 cells ([2]; inactivator 10 μM, BCNU none): 453 ± 59 per 1000 cells
- EC50 [5]: 300 nM
- Colony Formation per 1000 cells ([3]; inactivator 1 μM, BCNU 40 μM): 378 ± 60 per 1000 cells
- Colony Formation per 1000 cells ([3]; inactivator 10 μM, BCNU 40 μM): 57 ± 7 per 1000 cells
- Colony Formation per 1000 cells ([3]; inactivator 10 μM, BCNU none): 429 ± 101 per 1000 cells

Compound: Nc1ncnc(OCc2ccccc2)c1[N+](=O)[O-] [Compound 3a, 4-Amino-6-benzyloxy-5-nitropyrimidine]
- EC50 [4]: 28000 nM
- EC50 [5]: 8000 nM

Compound: O=c1nc(OCc2ccccc2)c2[nH]cnc2[nH]1 [Compound 4a, O^6-Benzylxanthine]
- EC50 [4]: 60000 nM
- EC50 [5]: 35000 nM

Compound: CC(=O)Nc1nc(OCc2ccccc2)c2[nH]c(=O)[nH]c2n1 [Compound 4d, N^2-Acetyl-O^6-benzyl-8-oxoguanine]
- EC50 [4]: 65000 nM
- EC50 [5]: 11000 nM

Compound: Nc1nc(OCc2ccccc2)c2[nH]c(=O)[nH]c2n1 [Compound 1c, O^6-Benzyl-8-oxoguanine]
- Colony Formation per 1000 cells ([1]; inactivator 10 μM, BCNU 40 μM): 4 ± 2 per 1000 cells
- Colony Formation per 1000 cells ([1]; inactivator 10 μM, BCNU none): 522 ± 78 per 1000 cells
- EC50 [4]: 300 nM
- Colony Formation per 1000 cells ([2]; inactivator 1 μM, BCNU 40 μM): 221 ± 15 per 1000 cells
- Colony Formation per 1000 cells ([2]; inactivator 10 μM, BCNU 40 μM): <1 per 1000 cells
- Colony Formation per 1000 cells ([2]; inactivator 10 μM, BCNU none): 401 ± 22 per 1000 cells
- EC50 [5]: 150 nM
- Colony Formation per 1000 cells ([3]; inactivator 1 μM, BCNU 40 μM): 329 ± 43 per 1000 cells
- Colony Formation per 1000 cells ([3]; inactivator 10 μM, BCNU 40 μM): 34 ± 3 per 1000 cells
- Colony Formation per 1000 cells ([3]; inactivator 10 μM, BCNU none): 379 ± 34 per 1000 cells

Compound: CNc1nc(OCc2ccccc2)c2nc[nH]c2n1 [Compound 4e, O^6-Benzyl-N^2-methylguanine]
- EC50 [4]: 160000 nM
- EC50 [5]: 60000 nM

Compound: Nc1nc(OCc2ccccc2)c2nc(N)[nH]c2n1 [Compound 1a, 8-Amino-O^6-benzylguanine]
- Colony Formation per 1000 cells ([1]; inactivator 10 μM, BCNU 40 μM): 95 ± 8 per 1000 cells
- Colony Formation per 1000 cells ([1]; inactivator 10 μM, BCNU none): 432 ± 36 per 1000 cells
- EC50 [4]: 700 nM
- enhancement of BCNU cytotoxicity, in words [2, 6]: comparatively low activity
- Colony Formation per 1000 cells ([2]; inactivator 1 μM, BCNU 40 μM): 475 ± 26 per 1000 cells
- Colony Formation per 1000 cells ([2]; inactivator 10 μM, BCNU 40 μM): 430 ± 41 per 1000 cells
- Colony Formation per 1000 cells ([2]; inactivator 10 μM, BCNU none): 504 ± 30 per 1000 cells
- EC50 [5]: 2000 nM
- Colony Formation per 1000 cells ([3]; inactivator 1 μM, BCNU 40 μM): 295 ± 45 per 1000 cells
- Colony Formation per 1000 cells ([3]; inactivator 10 μM, BCNU 40 μM): 435 ± 70 per 1000 cells
- Colony Formation per 1000 cells ([3]; inactivator 10 μM, BCNU none): 380 ± 36 per 1000 cells

Compound: Nc1nc(N)c(Br)c(OCc2ccccc2)n1 [Compound 3f, 2,4-Diamino-6-benzyloxy-5-bromopyrimidine]
- EC50 [4]: 2000 nM
- AGT inactivating activity in HT29 cell-free extracts, in words [4]: considerably more active than 3b
- EC50 [5]: 800 nM

Compound: Cc1nc2c(OCc3ccccc3)nc(N)nc2[nH]1 [Compound 1b, O^6-benzyl-8-methylguanine]
- Colony Formation per 1000 cells ([1]; inactivator 10 μM, BCNU 40 μM): 2 ± 1 per 1000 cells
- Colony Formation per 1000 cells ([1]; inactivator 10 μM, BCNU none): 376 ± 76 per 1000 cells
- EC50 [4]: 300 nM
- Colony Formation per 1000 cells ([2]; inactivator 1 μM, BCNU 40 μM): 230 ± 51 per 1000 cells
- Colony Formation per 1000 cells ([2]; inactivator 10 μM, BCNU 40 μM): <1 per 1000 cells
- Colony Formation per 1000 cells ([2]; inactivator 10 μM, BCNU none): 513 ± 76 per 1000 cells
- EC50 [5]: 100 nM
- Colony Formation per 1000 cells ([3]; inactivator 1 μM, BCNU 40 μM): 306 ± 157 per 1000 cells
- Colony Formation per 1000 cells ([3]; inactivator 10 μM, BCNU 40 μM): 50 ± 7 per 1000 cells
- Colony Formation per 1000 cells ([3]; inactivator 10 μM, BCNU none): 357 ± 43 per 1000 cells

Compound: Fc1nc(OCc2ccccc2)c2nc[nH]c2n1 [Compound 4c, O^6-benzyl-2-fluorohypoxanthine]
- EC50 [4]: 48000 nM
- EC50 [5]: 12000 nM

Compound: Nc1cc(OCc2ccccc2)nc(N)n1 [Compound 3b, 2,4-diamino-6-benzyloxypyrimidine]
- EC50 [4]: 15000 nM
- EC50 [5]: 5000 nM

Compound: Cn1c(Br)nc2c(OCc3ccccc3)nc(N)nc21 [Compound 10a, O^6-Benzyl-8-bromo-9-methylguanine]
- EC50 [4]: 1900 nM
- EC50 [5]: 250 nM
- ratio of ED50 values in cell-free extracts/intact cells [5]: 7.2
- AGT inactivating activity in intact HT29 cells, in words [5]: significantly higher than their activity in cell-free extracts

Compound: Cn1nnc2c(OCc3ccccc3)nc(N)nc21 [Compound 8a, 8-Aza-O^6-benzyl-9-methylguanine]
- EC50 [4]: 500 nM
- EC50 [5]: 80 nM
- ratio of ED50 values in cell-free extracts/intact cells [5]: 6.3
- AGT inactivating activity in intact HT29 cells, in words [5]: significantly higher than their activity in cell-free extracts

Compound: Nc1nc(N)c([N+](=O)[O-])c(OCc2ccccc2)n1 [Compound 3e, 2,4-diamino-6-benzyloxy-5-nitropyrimidine]
- Colony Formation per 1000 cells ([1]; inactivator […], BCNU 40 μM): 2 ± 1 per 1000 cells
- enhancement of BCNU cytotoxicity, in words [2, 6]: similarly effective at a 4-fold lower dose
- Colony Formation per 1000 cells ([2]; inactivator 1 μM, BCNU 40 μM): 45 ± 4 per 1000 cells
- Colony Formation per 1000 cells ([2]; inactivator […], BCNU 40 μM): <1 per 1000 cells
- Colony Formation per 1000 cells ([3]; inactivator 1 μM, BCNU 40 μM): 59 ± 6 per 1000 cells

Compound: Nc1nc(N)nc(OCc2ccccc2)n1 [Compound 6, 2,4-Diamino-6-benzyloxy-s-triazine]
- EC50 [4]: 4000 nM
- AGT inactivating activity in HT29 cell-free extracts, in words [4]: considerably more active than 3b
- EC50 [5]: 1000 nM

Compound: CN(C)c1nc(OCc2ccccc2)c2nc[nH]c2n1 [Compound 4f, O^6-Benzyl-N^2,N^2-dimethylguanine]
- EC50 [4]: 200000 nM
- EC50 [5]: 110000 nM

Compound: Nc1ncc([N+](=O)[O-])c(OCc2ccccc2)n1 [Compound 5a, 2-Amino-4-benzyloxy-5-nitropyrimidine]
- EC50 [4]: 400 nM
- AGT inactivating activity in HT29 cell-free extracts, in words [4]: much more active than 3a
- EC50 [5]: 50 nM
- AGT inactivating activity in intact HT29 cells, in words [5]: quite active in cells

Compound: Nc1nc(OCc2ccccc2)c2nc(Br)[nH]c2n1 [Compound 1d, O^6-Benzyl-8-bromoguanine]
- Colony Formation per 1000 cells ([1]; inactivator 10 μM, BCNU 40 μM): 3 ± 1 per 1000 cells
- Colony Formation per 1000 cells ([1]; inactivator 10 μM, BCNU none): 380 ± 109 per 1000 cells
- Colony Formation per 1000 cells ([1]; inactivator […], BCNU 40 μM): 4 ± 3 per 1000 cells
- EC50 [4]: 80 nM
- AGT inactivating activity in HT29 cell-free extracts, in words [4]: essentially as active as pyrimidines 3d and 3e
- Colony Formation per 1000 cells ([2]; inactivator 1 μM, BCNU 40 μM): 299 ± 30 per 1000 cells
- Colony Formation per 1000 cells ([2]; inactivator 10 μM, BCNU 40 μM): 1 ± 0 per 1000 cells
- Colony Formation per 1000 cells ([2]; inactivator 10 μM, BCNU none): 401 ± 22 per 1000 cells
- EC50 [5]: 60 nM
- ratio of ED50 values in cell-free extracts/intact cells [5]: 1.6
- AGT inactivating activity in intact HT29 cells, in words [5]: somewhat less active in cells than expected
- Colony Formation per 1000 cells ([3]; inactivator 1 μM, BCNU 40 μM): 267 ± 39 per 1000 cells
- Colony Formation per 1000 cells ([3]; inactivator 10 μM, BCNU 40 μM): 16 ± 3 per 1000 cells
- Colony Formation per 1000 cells ([3]; inactivator 10 μM, BCNU none): 493 ± 90 per 1000 cells

Compound: O=c1nc(OCc2ccccc2)c2[nH]c(=O)[nH]c2[nH]1 [Compound 4b, O^6-Benzyluric acid]
- EC50 [4]: 25000 nM
- EC50 [5]: 45000 nM
